# Results: the supplement of paper PMC11061612
# Tests used:
# Assay in all cases: Bliss excess, mean over the matrix (fraction); higher = more synergy
# [1] = system: DK-MG (Glioblastoma)
# Procedure, shortened: (§1)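 Cell lines in DMEM/F12 or RPMI with 10% FBS were plated in 1536-well plates, held 24 hours at 37°C, 5% CO2, then given two-drug dose matrices for 72 hours (DMSO typically 0.2%). Viability was read by CellTiter-Glo 2.0 luminescence and scaled as inhibition from 0 (vehicle wells) to 1 (blank wells). Combination Emax is the second-highest inhibition in the matrix; Bliss excess is observed combination effect minus expected EA + EB − EA·EB, EA and EB being single-agent effects.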
# [2] = system: CAL-85-1 (Breast Carcinoma)
# Procedure, shortened: as §1
# [3] = system: NCI-H1435 (Non-Small Cell Lung Carcinoma)
# Procedure, shortened: as §1
# [4] = system: GCIY (Gastric Carcinoma)
# Procedure, shortened: as §1
# [5] = system: TOV-21G (Ovarian Carcinoma)
# Procedure, shortened: as §1
# [6] = system: KNS-62 (Squamous Cell Lung Carcinoma)
# Procedure, shortened: as §1
# [7] = system: NCI-H1975 (Lung Adenocarcinoma)
# Procedure, shortened: as §1
# [8] = system: NCI-H1048 (Small Cell Lung Carcinoma)
# Procedure, shortened: as §1
# [9] = system: BT-474 (Breast Carcinoma)
# Procedure, shortened: as §1
# [10] = system: NCI-H1944 (Lung Adenocarcinoma)
# Procedure, shortened: as §1
# [11] = system: TK (B-Cell Non-Hodgkin's Lymphoma)
# Procedure, shortened: as §1
# [12] = system: NCI-H2170 (Squamous Cell Lung Carcinoma)
# Procedure, shortened: as §1
# [13] = system: MDA-MB-175-VII (Breast Carcinoma)
# Procedure, shortened: as §1
# [14] = system: COR-L105 (Lung Adenocarcinoma)
# Procedure, shortened: as §1
# [15] = system: NCI-H835 (Other Solid Carcinomas)
# Procedure, shortened: as §1
# [16] = system: SBC-3 (Small Cell Lung Carcinoma)
# Procedure, shortened: as §1
# [17] = system: SK-MEL-24 (Melanoma)
# Procedure, shortened: as §1
# [18] = system: OCI-M1 (Acute Myeloid Leukemia)
# Procedure, shortened: as §1
# [19] = system: MG-63 (Osteosarcoma)
# Procedure, shortened: as §1
# [20] = system: Daudi (Burkitt's Lymphoma)
# Procedure, shortened: as §1
SMILES,Bliss excess [1],Bliss excess [2],Bliss excess [3],Bliss excess [4],Bliss excess [5],Bliss excess [6],Bliss excess [7],Bliss excess [8],Bliss excess [9],Bliss excess [10],Bliss excess [11],Bliss excess [12],Bliss excess [13],Bliss excess [14],Bliss excess [15],Bliss excess [16],Bliss excess [17],Bliss excess [18],Bliss excess [19],Bliss excess [20]
"CC(=O)c1c(C)c2cnc(Nc3ccc(N4CCNCC4)cn3)nc2n(C2CCCC2)c1=O [Palbociclib] + Cc1c2c(nn1C)CSCc1cc(n(C)n1)CSc1cc(c3ccccc3c1)OCCCc1c(C(=O)O)n(C)c3c-2c(Cl)ccc13 [AZD5991] (first compound max 10 µM, 7x7, partner max 1 µM)",-0.0018,-0.0101,-0.0308,-0.0198,-0.0439,-0.0142,-0.0357,-0.0904,-0.0924,0.0187,-0.0191,-0.0189,0.0232,-0.0088,-0.0004,-0.043,-0.0196,0.033,0.0096,0.0059
"CS(=O)(=O)CCNCc1ccc(-c2ccc3ncnc(Nc4ccc(OCc5cccc(F)c5)c(Cl)c4)c3c2)o1 [Lapatinib] + NC1(c2ccc(-c3nc4ccn5c(=O)[nH]nc5c4cc3-c3ccccc3)cc2)CCC1 [MK-2206] (first compound max 10 µM, 7x7, partner max 10 µM)",–,-0.0016,0.0601,0.0484,–,0.0408,–,–,–,0.0376,–,–,0.0563,0.014,0.0357,0.0258,-0.0572,0.0217,0.0157,–
"COc1nnc2ccc(N3CCC(c4ccc(OCCN5CCN(C)C(=O)[C@H]5C)cc4)CC3)nn12 [AZD5153] + C=CCn1c(=O)c2cnc(Nc3ccc(N4CCN(C)CC4)cc3)nc2n1-c1cccc(C(C)(C)O)n1 [AZD1775] (first compound max 1 µM, partner max 1 µM)",-0.0209,-0.0551,0.0179,-0.0136,-0.0246,-0.0371,0.0251,-0.0823,-0.0279,0.0333,-0.0554,0.06,-0.0255,-0.0063,-0.0618,-0.0111,-0.0421,-0.0449,-0.0419,-0.0642
"NC1(C(=O)N[C@@H](CCO)c2ccc(Cl)cc2)CCN(c2ncnc3[nH]ccc23)CC1 [Capivasertib] + Cn1cnc2c(F)c(Nc3ccc(Br)cc3Cl)c(C(=O)NOCCO)cc21 [Selumetinib] (first compound max 10 µM, 7x7, partner max 10 µM)",0.0686,-0.0429,0.0234,-0.0245,0.0122,0.119,0.0584,0.0363,0.0509,0.0543,-0.0189,0.0047,0.0989,-0.0333,-0.027,-0.0353,-0.0145,0.0825,-0.0011,-0.0138
"CS(=O)(=O)CCNCc1ccc(-c2ccc3ncnc(Nc4ccc(OCc5cccc(F)c5)c(Cl)c4)c3c2)o1 [Lapatinib] + Cn1cnc2c(F)c(Nc3ccc(Br)cc3Cl)c(C(=O)NOCCO)cc21 [Selumetinib] (first compound max 10 µM, 7x7, partner max 10 µM)",–,0.0396,0.0172,-0.0067,–,0.0708,–,–,–,–,–,–,0.0577,0.0224,-0.0013,-0.0109,0.0129,–,-0.0863,–
"Cn1cnc2c(F)c(Nc3ccc(Br)cc3Cl)c(C(=O)NOCCO)cc21 [Selumetinib] + CC(C)n1c(=O)n(C)c2cnc3cc(F)c(-c4ccc(OCCCN5CCCCC5)nc4)cc3c21 [AZD1390] (first compound max 10 µM, 7x7, partner max 0.3 µM)",0.0063,-0.0039,-0.0087,-0.0233,-0.0336,-0.0513,-0.0473,-0.0372,-0.0469,-0.0306,-0.0134,-0.0384,-0.0235,0.0019,-0.0464,-0.0592,-0.014,0.0164,-0.0037,-0.02
"COc1nnc2ccc(N3CCC(c4ccc(OCCN5CCN(C)C(=O)[C@H]5C)cc4)CC3)nn12 [AZD5153] + CC1(C)CCC(CN2CCN(c3ccc(C(=O)NS(=O)(=O)c4ccc(NCC5CCOCC5)c([N+](=O)[O-])c4)c(Oc4cnc5[nH]ccc5c4)c3)CC2)=C(c2ccc(Cl)cc2)C1 [Venetoclax] (first compound max 1 µM, 7x7, partner max 1 µM)",-0.0766,-0.0582,-0.0143,-0.0592,-0.0264,-0.0381,-0.0579,0.0165,-0.078,-0.0824,0.0193,-0.0329,0.0346,-0.0006,-0.125,-0.0545,-0.0685,-0.062,-0.0509,-0.0458
"Cc1nc(-c2cn3c(n2)-c2ccc(-c4cnn(C(C)(C)C(N)=O)c4)cc2OCC3)n(C(C)C)n1 [Taselisib] + O=C(Nc1ccc2[nH]nc(-c3ccncc3)c2c1)[C@@H]1CCN(CC(=O)N2CCN(c3ccc(-c4ncccn4)cc3)CC2)C1 [SCH772984] (first compound max 10 µM, 7x7, partner max 5 µM)",–,0.0682,0.0352,-0.0131,–,0.0108,–,–,–,–,–,–,0.138,0.052,0.0323,0.11,0.0017,–,-0.0764,–
"O=C(c1cc(Cc2n[nH]c(=O)c3ccccc23)ccc1F)N1CCN(C(=O)C2CC2)CC1 [Olaparib] + COc1nnc2ccc(N3CCC(c4ccc(OCCN5CCN(C)C(=O)[C@H]5C)cc4)CC3)nn12 [AZD5153] (first compound max 10 µM, 7x7, partner max 1 µM)",–,-0.026,-0.022,-0.0248,–,-0.0631,–,–,–,–,–,–,-0.0024,-0.0689,-0.0422,-0.0786,-0.0814,–,-0.0749,–
"O=C(c1cc(Cc2n[nH]c(=O)c3ccccc23)ccc1F)N1CCN(C(=O)C2CC2)CC1 [Olaparib] + Cc1c2c(nn1C)CSCc1cc(n(C)n1)CSc1cc(c3ccccc3c1)OCCCc1c(C(=O)O)n(C)c3c-2c(Cl)ccc13 [AZD5991] (first compound max 10 µM, 7x7, partner max 1 µM)",–,-0.0484,-0.0055,-0.041,–,-0.0396,–,–,–,–,–,–,-0.0155,-0.0494,-0.0467,-0.0134,-0.0478,–,-0.0465,–
"Cc1c2c(nn1C)CSCc1cc(n(C)n1)CSc1cc(c3ccccc3c1)OCCCc1c(C(=O)O)n(C)c3c-2c(Cl)ccc13 [AZD5991] + Nc1ccn([C@@H]2O[C@H](CO)[C@@H](O)C2(F)F)c(=O)n1 [Gemcitabine] (first compound max 1 µM, 7x7, partner max 0.3 µM)",–,-0.027,-0.0706,0.0091,–,-0.009,–,–,–,–,–,–,0.0148,0.0042,0.0842,0.0059,-0.0245,–,-0.071,–
"CCc1c2c(nc3ccc(O)cc13)-c1cc3c(c(=O)n1C2)COC(=O)[C@]3(O)CC [SN-38] + O=C(c1cc(Cc2n[nH]c(=O)c3ccccc23)ccc1F)N1CCN(C(=O)C2CC2)CC1 [Olaparib] (first compound max 0.3 µM, 7x7, partner max 10 µM)",0.0193,0.059,0.0243,0.0875,–,0.0497,0.0248,0.0934,–,0.025,–,0.0726,0.0367,-0.022,0.017,0.0513,0.0007,–,0.0681,0.122
"C[C@@H]1COCCN1c1cc(C2([S@](C)(=N)=O)CC2)nc(-c2ccnc3[nH]ccc23)n1 [AZD6738] + Nc1ccn([C@@H]2O[C@H](CO)[C@@H](O)C2(F)F)c(=O)n1 [Gemcitabine] (first compound max 10 µM, 7x7, partner max 0.3 µM)",–,0.0227,0.0799,-0.0362,–,0.0023,–,–,–,–,–,–,-0.0368,0.003,0.0442,0.0306,0.0379,–,0.17,–
"C[C@@H](Nc1cc(F)cc(F)c1)c1cc(C(=O)N(C)C)cc2c(=O)cc(N3CCOCC3)oc12 [AZD8186] + C1CN(CCC1(C(=O)N[C@@H](CCO)C2=CC=C(C=C2)Cl)N)C3=NC=NC4=C3C=CN4 [AZD5363] (first compound max 10 µM, 7x7, partner max 10 µM)",–,-0.0285,0.0283,-0.012,–,-0.0302,–,–,–,–,–,–,-0.0108,0.0189,-0.0164,0.0272,-0.0455,–,-0.0376,–
"C[C@@H]1COCCN1c1cc(C2([S@](C)(=N)=O)CC2)nc(-c2ccnc3[nH]ccc23)n1 [AZD6738] + C1CC(C1)(C(=O)[O-])C(=O)[O-].N.N.[Pt+2] [Carboplatin] (first compound max 10 µM, 7x7, partner max 10 µM)",–,-0.0551,-0.0103,-0.066,–,-0.0581,–,–,–,–,–,–,-0.0024,-0.0272,-0.0529,-0.031,-0.0748,–,-0.0391,–
"Cc1c2c(nn1C)CSCc1cc(n(C)n1)CSc1cc(c3ccccc3c1)OCCCc1c(C(=O)O)n(C)c3c-2c(Cl)ccc13 [AZD5991] + CC(=O)O[C@H]1C(=O)[C@@]2(C)[C@H]([C@H](OC(=O)c3ccccc3)[C@]3(O)C[C@H](OC(=O)[C@H](O)[C@@H](NC(=O)c4ccccc4)c4ccccc4)C(C)=C1C3(C)C)[C@]1(OC(C)=O)CO[C@@H]1C[C@@H]2O [Paclitaxel] (first compound max 1 µM, 7x7, partner max 3 µM)",–,-0.0082,0.0254,-0.0262,–,-0.0159,–,–,–,–,–,–,0.102,-0.0367,0.0252,-0.0404,-0.0449,–,-0.0715,–
"Cc1c2c(nn1C)CSCc1cc(n(C)n1)CSc1cc(c3ccccc3c1)OCCCc1c(C(=O)O)n(C)c3c-2c(Cl)ccc13 [AZD5991] + CS(=O)(=O)CCNCc1ccc(-c2ccc3ncnc(Nc4ccc(OCc5cccc(F)c5)c(Cl)c4)c3c2)o1 [Lapatinib] (first compound max 1 µM, 7x7, partner max 10 µM)",–,-0.0213,-0.0063,0.013,–,-0.0155,–,–,–,–,–,–,0.04,-0.0414,0.019,-0.0235,-0.0651,–,-0.0352,–
